In US11926613B2, “Kinase inhibitors for the treatment of central and peripheral nervous system disorders” (UNIVERSITY OF MIAMI, priority 2017, dated 2024):

What was measured:
[1] = system: neurons from hippocampi of E18 rat embryos; assay: Neurite growth length (% NTL) in cultured E18 rat hippocampal neurons, 9-point dose response, 48 hours; format: cell-based; settings: Rattus norvegicus, Neuron, 48 h; for activity at 0.078 µM: 78 nM; for activity at 0.156 µM: 156 nM; for activity at 0.312 µM: 312 nM; for activity at 0.625 µM: 625 nM
Procedure, shortened: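 Dissociated E18 rat hippocampal neurons at 1500 cells/well on PDL were exposed 48 h to 9 concentrations from 20 μM down to 0.078125 μM. After PFA fixation and βIII-tubulin/Hoechst staining, ArrayScan imaging traced neurites in at least 200–300 neurons per condition to give % NTL.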

Primary Neurons = assay: HCS neurite outgrowth assay (High Content Screening with Primary Neurons); format: cell-based; settings: Primary neuron

| SMILES | activity at 0.078 µM [1] [%] | activity at 0.156 µM [1] [%] | activity at 0.312 µM [1] [%] | activity at 0.625 µM [1] [%] | activity at 1.25 µM [1] [%] | activity at 2.5 µM [1] [%] | activity at 5 µM [1] [%] | activity at 10 µM [1] [%] | activity at 20 µM [1] [%] | EC50 (Primary Neurons) [µM] |
| --- | --- | --- | --- | --- | --- | --- | --- | --- | --- | --- |
| Nc1nccc(C(=O)N[C@@H]2CNC[C@H]2NC(=O)c2ccc(C(=O)c3cccc(Cl)c3O)cc2)n1 [Example A70, 2-amino-N-[(3R,4R)-4-[4-(3-chloro-2-hydroxybenzoyl)benzamido]pyrrolidin-3-yl]pyrimidine-4-carboxamide] | 103 | 107 | 115 | 122 | 123 | 117 | 122 | 135 | 145 | > 20 |
| O=C(N[C@@H]1CNC[C@H]1NC(=O)c1ccc(C(=O)c2cccc(Cl)c2O)cc1)c1ccncc1 [Example A71, N-[(3R,4R)-4-[4-(3-chloro-2-hydroxybenzoyl)benzamido]pyrrolidin-3-yl]pyridine-4-carboxamide] | 94.8 | 99 | 105 | 109 | 102 | 109 | 119 | 117 | 124 | 2.15 |
| COc1cccc(C(=O)c2ccc(C(=O)N[C@@H]3CNC[C@H]3NC(=O)c3ccnc(N)n3)cc2)c1O [Example A72, 2-amino-N-[(3R,4R)-4-[4-(2-hydroxy-3-methoxybenzoyl)benzamido]pyrrolidin-3-yl]pyrimidine-4-carboxamide] | 96.4 | 94 | 97.7 | 108 | 106 | 105 | 113 | 127 | 157 | > 20 |
| COc1cccc(C(=O)c2ccc(C(=O)N[C@@H]3CNC[C@H]3NC(=O)c3ccncc3)cc2)c1O [Example A73, N-[(3R,4R)-4-[4-(2-hydroxy-3-methoxybenzoyl)benzamido]pyrrolidin-3-yl]pyridine-4-carboxamide] | 96.7 | 110 | 102 | 105 | 125 | 117 | 121 | 136 | 159 | > 20 |
| Cc1cccc(C(=O)c2ccc(C(=O)N[C@@H]3CNC[C@H]3NC(=O)c3ccnc(N)n3)cc2)c1O [Example A74, 2-amino-N-[(3R,4R)-4-[4-(2-hydroxy-3-methylbenzoyl)benzamido]pyrrolidin-3-yl]pyrimidine-4-carboxamide] | 101 | 103 | 103 | 106 | 105 | 119 | 121 | 137 |  | 4.5 |
| Cc1cccc(C(=O)c2ccc(C(=O)N[C@@H]3CNC[C@H]3NC(=O)c3ccncc3)cc2)c1O [Example A75, N-[(3R,4R)-4-[4-(2-hydroxy-3-methylbenzoyl)benzamido]pyrrolidin-3-yl]pyridine-4-carboxamide] | 97.1 | 93.7 | 105 | 106 | 116 | 119 | 119 | 146 | 140 | 6.57 |
| COc1ccc(O)c(C(=O)c2ccc(C(=O)N[C@@H]3CNC[C@H]3NC(=O)c3ccnc(N)n3)cc2)c1 [Example A76, 2-amino-N-[(3R,4R)-4-[4-(2-hydroxy-5-methoxybenzoyl)benzamido]pyrrolidin-3-yl]pyrimidine-4-carboxamide] | 131 | 121 | 140 | 156 | 169 | 207 | 317 | 558 | 692 | 8.37 |
| COc1ccc(O)c(C(=O)c2ccc(C(=O)N[C@@H]3CNC[C@H]3NC(=O)c3ccncc3)cc2)c1 [Example A77, N-[(3R,4R)-4-[4-(2-hydroxy-5-methoxybenzoyl)benzamido]pyrrolidin-3-yl]pyridine-4-carboxamide] | 118 | 125 | 133 | 144 | 159 | 187 | 263 | 469 | 653 | 10.4 |
| Cc1ccc(O)c(C(=O)c2ccc(C(=O)N[C@@H]3CNC[C@H]3NC(=O)c3ccncc3)cc2)c1 [Example A78, N-[(3R,4R)-4-[4-(2-hydroxy-5-methylbenzoyl)benzamido]pyrrolidin-3-yl]pyridine-4-carboxamide] | 122 | 121 | 133 | 143 | 152 | 176 | 256 | 410 | 503 | 7.77 |
| O=C(N[C@@H]1CNC[C@H]1NC(=O)c1ccc(C(=O)c2ccc(Cl)cc2O)cc1)c1ccncc1 [Example A79, N-[(3R,4R)-4-[4-(4-chloro-2-hydroxybenzoyl)benzamido]pyrrolidin-3-yl]pyridine-4-carboxamide] | 116 | 109 | 117 | 118 | 111 | 116 | 112 | 107 | 94.7 | > 20 |
| Cc1ccc(C(=O)c2ccc(C(=O)N[C@@H]3CNC[C@H]3NC(=O)c3ccnc(N)n3)cc2)c(O)c1 [Example A80, 2-amino-N-[(3R,4R)-4-[4-(2-hydroxy-4-methylbenzoyl)benzamido]pyrrolidin-3-yl]pyrimidine-4-carboxamide] | 125 | 124 | 141 | 158 | 178 | 221 | 203 | 160 | 155 | 0.534 |
| Cc1ccc(C(=O)c2ccc(C(=O)N[C@@H]3CNC[C@H]3NC(=O)c3ccncc3)cc2)c(O)c1 [Example A81, N-[(3R,4R)-4-[4-(2-hydroxy-4-methylbenzoyl)benzamido]pyrrolidin-3-yl]pyridine-4-carboxamide] | 124 | 120 | 127 | 128 | 128 | 125 | 130 | 113 | 116 | 5.22 |
| COc1ccc(C(=O)c2ccc(C(=O)N[C@@H]3CNC[C@H]3NC(=O)c3ccnc(N)n3)cc2)c(O)c1 [Example A82, 2-amino-N-[(3R,4R)-4-[4-(2-hydroxy-4-methoxybenzoyl)benzamido]pyrrolidin-3-yl]pyrimidine-4-carboxamide] | 107 | 115 | 117 | 124 | 122 | 120 | 120 | 131 | 117 | 0.154 |
| COc1ccc(C(=O)c2ccc(C(=O)N[C@@H]3CNC[C@H]3NC(=O)c3ccncc3)cc2)c(O)c1 [Example A83, N-[(3R,4R)-4-[4-(2-hydroxy-4-methoxybenzoyl)benzamido]pyrrolidin-3-yl]pyridine-4-carboxamide] | 106 | 105 | 110 | 118 | 124 | 127 | 127 | 123 | 117 | 0.486 |
| Nc1nccc(C(=O)N[C@@H]2CNC[C@H]2NC(=O)c2ccc(C(=O)c3cc(Cl)ccc3O)cc2)n1 [Example A84, 2-amino-N-[(3R,4R)-4-[4-(5-chloro-2-hydroxybenzoyl)benzamido]pyrrolidin-3-yl]pyrimidine-4-carboxamide] | 115 | 118 | 125 | 139 | 153 | 165 | 270 | 492 | 564 | 6.86 |
| O=C(N[C@@H]1CNC[C@H]1NC(=O)c1ccc(C(=O)c2cc(Cl)ccc2O)cc1)c1ccncc1 [Example A85, N-[(3R,4R)-4-[4-(5-chloro-2-hydroxybenzoyl)benzamido]pyrrolidin-3-yl]pyridine-4-carboxamide] | 134 | 144 | 140 | 153 | 177 | 219 | 376 | 534 | 426 | 3.82 |
| O=C(N[C@@H]1CNC[C@H]1NC(=O)c1ccc(C(=O)c2ccccc2O)cc1)c1ccncc1 [Example A86, N-[(3R,4R)-4-[4-(2-hydroxybenzoyl)benzamido]pyrrolidin-3-yl]pyridine-4-carboxamide] | 124 | 135 | 126 | 134 | 136 | 158 | 185 | 271 | 379 | 11.9 |
